How the values were obtained:
Assay type in all cases: cell-based, murine
HC e/n XVB cells = assay: Whole-cell patch-clamp recording of ligand-activated currents; conditions: for ligand-activated currents (electrophysiological recordings): membrane potential clamped to -70mV
Procedure: (§1) Electrophysiological setup: Membrane currents were measured with the patchclamp technique in the whole-cell recording configuration (Hamill et al. 1981, Pfluegers Arch. 391:85-100). Current signals were amplified with conventional electronics (EPC-9 amplifier, HEKA Elektronik GmbH, Lambrecht, Germany), filtered at 10kHz, and sampled at 5 kHz by an interface connected to an IBM AT-compatible computer system, which also served as a stimulus generator.
(§2) Solutions and electrodes: The standard bathing solution contained (in mM): Nacl 150, KCL 5, MgCl2 1.8, HEPES 5, and glucose 10. In some experiments an equimolar amount of NaCl was replaced by 5mM BaCl2. Recording pipettes had resistances about 5MΩ (Hilgenberg, Malsfeld, Germany). The pipettes contained (in mM): KCL 140, CaCl2 0.5, EGTA 5, MgCl2 2, and HEPES 10. The pH was adjusted to 7.4. In some experiments the pipette solution was designed to minimize the contribution of voltage-activated currents. In this case, investigating the ligand-activated currents, the pipette solution contained (in mM): CsCl 140, EGTA 10, and HEPES 10.
(§3) Ligands were dissolved in the extracellular saline solution and applied via an U-tube application system. To record ligand-induced currents, the membrane potential was clamped to -70mV. For measurements of voltage-activated currents, cells were held at -70mV and every second the membrane was stepped through a 50 msec. de- or hyperpolarising test pulse to a potential between -170 and +20 mV.

HNMMCV13.1.E [1] = assay: as above; conditions: 13.1.E; membrane potential clamped to -70mV
Procedure: as §1, §2, §3

[2] = system: metabotropic glutamate receptor(s) (mGluR) expressed by HNMMCV14.1A cells; assay: Phosphoinositide hydrolysis: accumulation of 3H-inositol phosphates; conditions: HNMMCV14.1A cells; agonist 1 h, LiCl 10 mM; read-out: EC50 inositolphosphate accumulation
Procedure: Phosphoinositide hydrolysis was determined by measuring the accumulation of ^3H-inositol phosphates. The cells were plated in 48-well plates (Costar) at a density of 10000 cells per well and incubated for 4-5 days at 37°C, 7% CO2. Then the cells were labeled by incubation with 4 µCi of myo-2-^3H-inositol per ml medium (specific activity: […]: Amersham). After 24 h LiCl (10 mM final concentration) was added to the cells for 1 h. Agonists were then added at the concentrations indicated. The incubation was stopped after 1 h by replacing the medium with 200 µl ice-cold methanol. 400 µl of destilled water was added and the sample was directly applied to AG-1X8 ion exchange columns (AG-1X8 resin: BioRad). Free inositol and glycerophosphoryl-inositol were washed away with 16 ml destilled water followed by 10 ml 5 mM disodium-tetraborate, 60 mM sodium formate. Total ^3H-inositol phosphates (IP1, IP2, IP3) were eluted with 7 ml of 100 mM formic acid, 1 M ammonium formate. Radioactivity of the eluted ^3H-inositol phosphates was determined by liquid scintillation counting after addition of 13 ml liquid scintillation cocktail (Ultima Gold: Canberra Packard). Measurements were performed in triplicates for each experimental point. Untreated controls were set as 100% and the other values calculated in relation to this.
The columns were prepared as follows: 1 ml pipet tips were filled with one glass bead (Roth) per tip before adding 500 µl AG-1X8 resin. The resin was compressed with air and 270 µl seasand was applied. Until use they were stored at 4°C.

HNMMCV13.1.F = assay: Ca2+-imaging (Fura-2) of intracellular calcium after application of agonists
Procedure: (§4) Fluorescent Probe: Dynamic changes of intracellular calcium concentration were measured using the Fura-2 fluorescent probe (Roe et al. 1990, Cell Calcium 11:63-73). This fluorescent dye was chosen because of its selectivity, high quantum yield and extinction co-efficient. Fura-2 permeates the living cell as a acetoxymethylester and becomes trapped within the cell after hydrolysis by intracellular esterases. The calcium-sensitive free acid of Fura-2 is able to bind to calcium ions inside the cell. Fura-2 has an excitation maximum at 380 nm and the Fura2/calcium complex peaks at 340 nm. A change in intracellular calcium concentration was calculated by recording fluorescent video images at wavelengths of 340nm and 380nm excitation and 510nm emission and by dividing the grey values of the digitized video images of 380nm from 340nm.
(§5) Loading cells with Fura-2: A stock solution with 2mM Fura-2-acetoxymethylester in dimethylsulfoxide (DMSO) was diluted to 5-10 µM with serum free Minimal Essential Medium (MEM, Gibco) containing 1.5% bovine serum albumin and 5 mM calcium chloride. The cells were incubated in a Falcon 96 well plate for 45-60 minutes at 37°C. Subsequently the cells were washed twice in N-(2-Hydroxyethyl)piperazine-N'-(2-ethanesulfonic acid) (HEPES, 5mM) buffered Tyrode solution (HEPES buffered salt solution containing 130 mM NaCl, 5 mM KCl, 2 mM CaCl2, 1 mM MgCl2, 5mM NaHCO3, 11 mM Glucose).
(§6) Imaging procedure: 100 µl of Tyrode buffer was added to the plate wells and the cells were sequencially exposed to light at 340 nm and 380 nm under a fluorescent microscope (Nikon Diaphot). The exposition time was 100 ms. A series of video images at 3 second intervals was acquired and stored as digitised pictures in the image boards of an image analysis computer (Leica, Quantimet 570). After the acquisition of 8 images the test substances were applied. The grey levels of the cells, which correspond to the fluorescence intensity, were measured in the recorded video images. The ratio was determined by dividing the measured grey levels of the "380 nm images" by the grey levels of the "340 nm images" either from averaged images or from individual cells. For averaged results, the grey levels were measured over the whole images.
(§7) The cells were loaded with Fura 2/AM between day 3 and 7 in culture. A number of agonists were tested for their ability to activate specific receptors on the cell surface which lead to a rise in intracellular calcium. The rise in calcium concentration in the cytoplasm can occur after activation of specific calcium channels in the cell membrane, after activation of neurotransmitter receptors directly coupled to ion channels that are permeable to calcium ions (i.e. NMDA or AMPA type glutamate receptors), or by activation of receptors, which propagate the signal through the activation of specific G-proteins, which regulate the activity of different enzymes in the interior of the cell (Connor, Cell Calcium 14 (1993), 185-200; Crouch and Hendry, Medical Res. Rev. 13 (1993), 105-123). The activation of phospholipase C generates the second messengers diacylglycerol and inositoltriphosphate from phospholipids in the cell membrane. The binding of inositoltriphosphate to receptors localised on internal vesicles which store calcium ions leads to a transient rise in the concentration of calcium ions in the cytoplasm (Berridge, M.J. 1993, Nature 361: 315-325).

HNMMCV13.1.E [3] = assay: as above
Procedure: as §4, §5, §6, §7

HNMMCV14.1.A [4] = assay: as above
Procedure: as §4, §5, §6, §7

HC e/n XV.B cells = assay: as above
Procedure: as §4, §5, §6, §7

HNMMCV11.2.0 = assay: as above
Procedure: as §4, §5, §6, §7

HNMMCV14.1.A [5] = assay: Whole-cell patch-clamp recording of ligand-activated currents
Procedure: as §1, §2, §3

[6] = system: v-myc-expressing lines and clones; assay: Induction of differentiation of immortalised cell lines and clones; conditions: 1mM
Procedure: For experiments in the presence of growth factors or other differentiation inducing agents, the primary cell cultures or the immortalised cell lines were cultured in the presence of one or a combination of the following: β-FGF, 1ng/ml, (Collaborative Research), EGF; 5 ng/ml or 10 ng/ml, (Collaborative Research), NGF (10 ng/ml, Collaborative Reasearch), dibutyryl cyclic adenosine monophosphate (dbcAMP, 1mM, Sigma, Heidelberg), retinoic acid (5 µM; Sigma), IL-7 (50 U/ml), TGFα (5ng/ml).
To induce differentiation in vitro several combinations of the following factors were used: retinoic acid (RA, 10 µM), NGF, β-FGF, EGF, IL-7, TGFα, dbcAMP (1mM). In addition the effect of co-culture with cortical glial cells originating from postnatal day 0 to 1 and granule neurons originating from postnatal day 6 mice was investigated.

What does the source list for `N[C@@H](CCC(=O)O)C(=O)O` [Glutamate, L-glutamate]?
ligand-activated currents (electrophysiological recordings) (HC e/n XVB cells; XV. B/ - EGF): ++ (++: 30-70% positive cells); ligand-activated currents (electrophysiological recordings) (HC e/n XVB cells; XV. B): -; ligand-activated currents (electrophysiological recordings) (HNMMCV13.1.E [1]): + (+: 10-30% positive cells); EC50 [2]: 50 µM

Which “rise in intracellular calcium concentration (result in words)” value (HNMMCV13.1.F) does the source give for `C=C(C)[C@H]1CN[C@H](C(=O)O)[C@H]1CC(=O)O` [Kainate, kainic acid] here?
Its value is “did not result in a transient rise”.

What about the “transient calcium currents after the application of agonists and antagonists (Calcium - Imaging)” value (from here on “transient calcium currents”) (HNMMCV13.1.F) of the same compound?
Its value is “-”.

And the “rise in intracellular calcium concentration (result in words)” value (HNMMCV13.1.E [3])?
The value was “did not result in a transient rise”.

What about the “transient calcium currents” value (HNMMCV13.1.E [3]) of the same compound?
The value was “-”.

And the “rise in intracellular calcium concentration (result in words)” value (HNMMCV14.1.A [4])?
The value was “did not result in a transient rise”.

What about the “transient calcium currents” value (HNMMCV14.1.A [4]) of the same compound?
The value was “-”.

And the “rise in intracellular calcium concentration (result in words)” value (HC e/n XV.B cells)?
The value was “reproducible calcium signal”.

And the “rise in intracellular calcium concentration (result in words)” value (HNMMCV11.2.0)?
Its value is “did not result in a transient rise”.

What about the “transient calcium currents” value (HNMMCV11.2.0) of the same compound?
The value was “-”.

And the “ligand-induced inward currents (result in words)” value (HC e/n XVB cells)?
Its value is “evoked responses”.

What about the “ligand-activated currents (electrophysiological recordings)” value (HNMMCV14.1.A [5]) of the same compound?
The value was “+ / -”.

How did the “expression of MAP-2” value ([6]; cell line HNMMCV11.2.) turn out when `CCCC(=O)Nc1ncnc2c1ncn2[C@@H]1O[C@@H]2COP(=O)(O)O[C@H]2[C@H]1OC(=O)CCC` [dbcAMP, dibutyryl cyclic adenosine monophosphate] was run?
Its value is “induction of the expression of MAP-2”.

What about the “differentiation of the cells (morphology, markers vimentin and nestin)” value ([6]; v-myc-expressing lines and clones) of the same compound?
The value was “partial differentiation”.

— patent publication EP0773287A1, “Immortalised embryonic hyppocampal cells and their use” (BAYER AG, priority 1995, dated 1997)
